The results in this text go back to patent US6486175B1, “Diester prodrugs of a decahydroisoquinoline-3-carboxylic acid” (Eli Lilly and Company, priority 1999, dated 2002).

Series [1] is described as follows: Pharmacokinetic parameters of Compound A in Fischer Rats after a 10 mg/kg dose. Type of series: in vivo. As to conditions: rat, iv, plasma Compound A. The protocol: (§1) The following in vivo data, in rats, dogs and monkeys, exemplify the surprising improvement in bioavailability of the diester prodrugs of the present invention over the diacid of 3S,4aR,6S, 8aR-6-(((4-carboxy)phenyl)methyl)1,2,3,4,4a,5,6,7,8,8a-decahydroisoquinoline-3-carboxylic acid. Percent bioavailability is determined using the following equation: [formula]
(§2) wherein AUC represents the area under the curve, p.o. represents oral dose, and i.v. represents intravenous dose.
Tables 1 and 2 below summarize the pharmacokinetic parameters found for Compounds A and B following 10 mg/kg administration (i.v. or p.o.) to Beagle Dogs and Fischer Rats respectively.

Series [2] can be described thus: Bioavailability in Dogs: plasma pharmacokinetics of Compound A after i.v./p.o. dosing. Format: in vivo. The following applies: both sexes, dog, iv, Beagle dogs, 10 mg/kg. On the procedure: as §1, §2
Beagle dogs (2 male and 1 female) were administered an oral and iv dose of 3S,4aR,6S,8aR-6-(((4-carboxy)phenyl)methyl)-1,2,3,4,4a,5,6,7,8,8a-decahydroisoquinoline-3-carboxylic acid (10 mg/kg) to determine oral bioavailability. The same three dogs were also administered an oral 10 mg/kg dose of compound 3S,4aR,6S,8aR-6-(((4-carboxy)phenyl)methyl)-1,2,3,4,4a,5,6,7,8,8a-decahydroisoquinoline-3-carboxylic acid, diethyl ester, to determine whether the prodrug would increase bioavailability. The plasma concentrations of 3S,4aR,6S,8aR-6-(((4-carboxy)phenyl)methyl)-1,2,3,4,4a,5,6,7,8,8a-decahydroisoquinoline-3-carboxylic acid were determined by LC/MS/MS. […]

Series [3] in a line: Bioavailability in Cynomolgus Monkeys: plasma pharmacokinetics of Compound A after i.v./p.o. dosing. As to conditions: cynomolgus monkey, in vivo. The protocol:
as §1, §2
Four female monkeys were administered an oral and iv dose of compound A (oral: 10 mg/kg; iv: 1 mg/kg) to determine oral bioavailability. The same animals were also administered an oral 10 mg/kg dose of compound B. The plasma concentrations of compound A were determined by LC/MS/MS.
Four female cynomolgus monkeys were given a single iv dose of compound A (1 mg/kg) on day 0, a single oral dose of compound A (10 mg/kg) on day 6 and a single oral dose of compound B (10 mg/kg) on day 10. Blood was collected at 0.5, 1, 2, 3, 4, 5, 6 and 8 hours post dose for oral dosing and 0.167, 0.33, 0.67, 1, 1.5, 2, 3 and 4 hours post dose for iv dosing. Dosing solutions for compound A and compound B were prepared in water. […] Measurable levels of drug (>10 ng/ml) were still present 8 hours post dose. […] Bioavailability was estimated at 34.8%.

For orientation: AUC means the area under the concentration-time curve, a measure of exposure. A high value points to more exposure. By Cmax is commonly meant the peak of the concentration-time curve. What is called half-life is the time in which the quantity being followed falls by half. High values mean slow loss, low ones fast loss. A word on the Tmax: it is the time from dosing to the highest level. Regarding `O=C(O)c1ccc(C[C@H]2CC[C@H]3CN[C@H](C(=O)O)C[C@H]3C2)cc1` [Compound A, 3S,4aR,6S,8aR-6-(((4-carboxy)phenyl)methyl)-1,2,3,4,4a,5,6,7,8,8a-decahydroisoquinoline-3-carboxylic acid], in series [1], the AUC came to 2410 ng·h/mL and the concentration peaked (Cmax) at 6280 ng/mL. In series [2], this molecule returned an AUC of 41400 ng·h/mL and a Cmax of 28800 ng/mL. Besides, the “levels of drug in plasma at 0.5 hr” value in series [3] (po, 10 mg/kg) is “measurable levels of drug were detected”. In addition, in series [3] (female, iv, 1 mg/kg), the AUC stood at 1190 ng·h/mL, the Cmax was 1920 ng/mL, the clearance worked out at 14 mL/min/kg and the half-life was 42 min. Also, in series [3] (female, po, 10 mg/kg), the “% Bioavail” value is 11.1%, the AUC is given as 1,320 ng hr/mL, the Cmax amounted to 127 ng/mL and the Improvement is on record as 1 X. In series [3] (female, po, 10 mg/kg), the Tmax was found to be 60 min and the concentration at 8 h was above 10 ng/mL.
In the case of `CCOC(=O)c1ccc(C[C@H]2CC[C@H]3CN[C@H](C(=O)OCC)C[C@H]3C2)cc1.Cl` [Compound B, 3S,4aR,6S, 8aR-6-(((4-carboxy)phenyl)methyl)-1,2,3,4,4a,5,6,7,8,8a-decahydroisoquinoline-3-carboxylic acid HCl, diethyl ester], in series [3] (po, 10 mg/kg), the “plasma levels of compound B (unchanged prodrug)” value is listed as “No detectable plasma levels”. Further, in series [3] (female, po, 10 mg/kg), the “% Bioavail” value stood at 34.8%, the AUC was 4,149 ng hr/mL, the Improvement is listed as 3.1X and the “increase in the bioavailability” value was 3.1 fold.
